Target: USP1, construct USP1 (I-785, GG670, 671AA)/UAF1 (I-677)-Flag (Homo sapiens (Human), UniProt O94782, G670A/G671A)
Test: Ubiquitin-Rhodamine 110 assay for USP1 activity, follow-up IC50 format
Type: biochemical

USP1, construct USP1 (I-785, GG670, 671AA)/UAF1 (I-677)-Flag, sequence (O94782 whole entry G670A/G671A): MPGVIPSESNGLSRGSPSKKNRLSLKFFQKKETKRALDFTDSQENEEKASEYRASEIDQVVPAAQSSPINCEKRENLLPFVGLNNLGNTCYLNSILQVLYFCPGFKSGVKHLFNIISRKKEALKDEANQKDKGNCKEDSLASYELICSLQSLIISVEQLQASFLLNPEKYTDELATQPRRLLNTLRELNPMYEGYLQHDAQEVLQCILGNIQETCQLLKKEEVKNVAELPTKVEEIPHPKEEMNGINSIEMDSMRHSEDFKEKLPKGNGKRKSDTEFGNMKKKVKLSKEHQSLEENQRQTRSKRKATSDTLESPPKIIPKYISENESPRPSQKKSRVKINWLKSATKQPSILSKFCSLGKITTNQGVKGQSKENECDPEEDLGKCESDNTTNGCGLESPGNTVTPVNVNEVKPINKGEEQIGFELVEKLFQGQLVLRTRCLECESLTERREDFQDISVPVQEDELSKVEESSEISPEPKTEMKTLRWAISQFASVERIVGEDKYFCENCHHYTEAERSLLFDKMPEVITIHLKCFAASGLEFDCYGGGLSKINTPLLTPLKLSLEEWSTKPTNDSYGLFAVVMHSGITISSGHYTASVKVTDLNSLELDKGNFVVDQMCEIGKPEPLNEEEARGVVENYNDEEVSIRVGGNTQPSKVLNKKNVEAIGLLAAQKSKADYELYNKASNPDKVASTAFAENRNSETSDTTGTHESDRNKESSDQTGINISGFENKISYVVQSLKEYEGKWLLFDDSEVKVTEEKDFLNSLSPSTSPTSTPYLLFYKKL
USP1, construct USP1 (I-785, GG670, 671AA)/UAF1 (I-677)-Flag, sequence (Q8TAF3 whole entry partner): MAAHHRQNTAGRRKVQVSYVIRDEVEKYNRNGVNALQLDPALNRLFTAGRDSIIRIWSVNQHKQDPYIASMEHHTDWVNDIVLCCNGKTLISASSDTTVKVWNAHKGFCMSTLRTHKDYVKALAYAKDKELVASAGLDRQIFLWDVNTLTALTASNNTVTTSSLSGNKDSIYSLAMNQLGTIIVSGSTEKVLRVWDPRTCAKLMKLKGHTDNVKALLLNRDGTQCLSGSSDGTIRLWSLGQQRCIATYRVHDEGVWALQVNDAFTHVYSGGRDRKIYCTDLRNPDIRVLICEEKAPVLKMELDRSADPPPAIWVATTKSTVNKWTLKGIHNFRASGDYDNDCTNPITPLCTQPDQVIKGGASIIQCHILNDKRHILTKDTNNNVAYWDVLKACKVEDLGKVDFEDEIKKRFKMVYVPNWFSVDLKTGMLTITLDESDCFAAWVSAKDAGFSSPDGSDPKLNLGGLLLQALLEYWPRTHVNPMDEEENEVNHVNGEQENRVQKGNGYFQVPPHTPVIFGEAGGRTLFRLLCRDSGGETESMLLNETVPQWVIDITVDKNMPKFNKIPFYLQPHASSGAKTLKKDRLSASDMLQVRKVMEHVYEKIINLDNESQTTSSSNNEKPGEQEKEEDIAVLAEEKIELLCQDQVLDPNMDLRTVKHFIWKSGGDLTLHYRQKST

“9-(4-(1H-pyrazol-1-yl)benzyl)-2-(2-cyclopropylphenyl)-7,9- [Compound I-94]” showed an IC50 of less than 50 nM.

From patent US11161848B2, “Purinones as ubiquitin-specific protease 1 inhibitors” (FORMA Therapeutics, Inc., priority 2015, dated 2021)
